According to patent US20220402900A1, “1,2,4-OXADIAZOL-5-ONE DERIVATIVES FOR THE TREATMENT OF CANCER” (Basilea Pharmaceutica International AG, priority 2019, published 2022):

Tests used:
[1] = molecular target: T1, human TEAD2 (amino acids 217-447) (Homo sapiens, UniProt Q15562); experiment: Thermal shift assay (TSA); format: binding; details: 3 μM recombinant TEAD2, compound 7 μM, shift vs DMSO control
T1 construct: human TEAD2 (amino acids 217-447); His-tag (N); purchased Proteros biostructures PR-0365; host or cells: E. coli
T1 sequence (Q15562 217-447): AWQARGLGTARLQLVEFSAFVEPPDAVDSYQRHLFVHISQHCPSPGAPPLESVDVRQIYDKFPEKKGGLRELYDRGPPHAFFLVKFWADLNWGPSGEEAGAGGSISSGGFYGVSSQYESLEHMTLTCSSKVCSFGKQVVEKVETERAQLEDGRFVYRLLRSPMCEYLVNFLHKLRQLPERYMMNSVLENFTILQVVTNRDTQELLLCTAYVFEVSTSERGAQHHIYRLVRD
Description: The thermal shift assay (TSA) was utilized to characterize target engagement in vitro based on ligand-dependent thermal stabilization of the protein. N-terminally His-tagged human TEAD2 (amino acids 217-447) expressed and purified from E. coli was purchased from Proteros biostructures (cat no. PR-0365). The melting reactions were performed in white, 96 well qPCR plates (Roche Diagnostics, cat. no. 04 729 692 001) in 20 mM HEPES pH 7, 100 mM NaCl in the presence of 4×SYPRO orange (Sigma, cat. no. S5692). Each well contained 3 μM recombinant TEAD2 and either DMSO (control) or experimental compounds at a final concentration of 7 μM. The total volume was 20 μL and the final DMSO concentration was 1%. The plate was sealed and analyzed in a LightCycler 480 II (Roche Diagnostics) by continuously reading the fluorescence using the 465-580 nm filter set while heating from 25° C. to 95° C. using a linear gradient of 1° C./min. Melting temperatures were determined by numerical differentiation using the LightCycler Thermal Shift Analysis software (Roche Diagnostics). The shifts in melting temperature caused by experimental compounds compared to the control are expressed as ΔTm (Table 2).

[2] = tested on: TEAD reporter gene activity; experiment: TEAD reporter gene assay (MCF7 TEAD reporter cell line); format: cell-based; details: Homo sapiens; TEAD luciferase reporter in MCF7 cells, 24 hours; read-out: IC50 TEAD RGA (converted)
Text: A TEAD reporter cell line was purchased from BPS Bioscience (cat. no. 60618). It contains the firefly luciferase gene under control of TEAD responsive elements stably integrated into the human breast cancer MCF7 cells. In proliferating cells, a basal level of unphosphorylated YAP/TAZ resides in the nucleus and drives the TEAD-dependent expression of the luciferase reporter. The cells were cultivated as recommended by the supplier. Inhibition of TEAD reporter gene activity by experimental compounds was measured using white, clear-bottom, 96 well cell culture plates (Greiner Bio-One, cat. no. 655098). The cells were seeded at a density of 20,000 cells per well in 100 μL growth medium and the plates were incubated overnight at 37° C. with 5% CO2 prior to treatment. Experimental compounds were serially diluted in DMSO to 200× the desired final concentrations. 0.5 μL aliquots of DMSO or the test samples were then mixed into the wells and the cells were further incubated for 24 hours. Luminescence was then measured on a Synergy 4 reader (BioTek) using the ONE-Glo Luciferase Assay System (Promega, cat. no. E6120) according to the manufacturer's instructions. Relative inhibition values were calculated by normalizing the raw data using DMSO-treated cells (0% inhibition) and wells devoid of cells (100% inhibition). IC50 values were calculated by fitting concentration-response data to a sigmoidal 4-parameter logistic model.

Structure (SMILES) | ΔTm at 7 µM [1] [°C] | IC50 [2] [nM]
O=c1[nH]c(-c2cccnc2Nc2ccc(C(F)(F)F)cc2)no1 [Example 1, 3-[2-[4-(trifluoromethyl)anilino]-3-pyridyl]-4H-1,2,4-oxadiazol-5-one] | 9.9 | 39
O=c1[nH]c(-c2c(F)ccnc2Nc2ccc(C(F)(F)F)cc2)no1 [Example 13, 3-[4-fluoro-2-[4-(trifluoromethyl)anilino]-3-pyridyl]-4H-1,2,4-oxadiazol-5-one] | 10.3 | 95
CC(C)(C)c1ccc(Nc2nccnc2-c2noc(=O)[nH]2)cc1 [Example 15, 3-[3-(4-tert-butylanilino)pyrazin-2-yl]-4H-1,2,4-oxadiazol-5-one] | 11.8 | 72
O=c1[nH]c(-c2nccnc2Nc2ccc(C(F)(F)F)nc2)no1 [Example 24, 3-[3-[[6-(trifluoromethyl)-3-pyridyl]amino]pyrazin-2-yl]-4H-1,2,4-oxadiazol-5-one] | 3.4 | 340
O=c1[nH]c(-c2cc(Cl)cnc2Nc2ccc(C(F)(F)F)cc2)no1 [Example 44, 3-[5-chloro-2-[4-(trifluoromethyl)anilino]-3-pyridyl]-4H-1,2,4-oxadiazol-5-one] | 11.6 | 225
O=c1[nH]c(-c2c(Nc3ccc(C(F)(F)F)cc3)ncc3c2CCC3)no1 [Example 49, 3-[3-[4-(trifluoromethyl)anilino]-6,7-dihydro-5H-cyclopenta[c]pyridin-4-yl]-4H-1,2,4-oxadiazol-5-one] | 0.6 | 649
O=c1[nH]c(-c2c(OCCNCCO)ccnc2Nc2ccc(C(F)(F)F)cc2)no1 [Example 54, 3-[4-[2-(2-hydroxyethylamino)ethoxy]-2-[4-(trifluoromethyl)anilino]-3-pyridyl]-4H-1,2,4-oxadiazol-5-one] | 0.9 | 357
O=c1[nH]c(-c2nccnc2Nc2ccc(OC(F)(F)F)cc2Cl)no1 [Example 8, 3-[3-[2-chloro-4-(trifluoromethoxy)anilino]pyrazin-2-yl]-4H-1,2,4-oxadiazol-5-one] | 7.5 | 1800
CNc1cnc(Nc2ccc(C(F)(F)F)cc2)c(-c2noc(=O)[nH]2)c1 [Example 46, 3-[5-(methylamino)-2-[4-(trifluoromethyl)anilino]-3-pyridyl]-4H-1,2,4-oxadiazol-5-one] | 7.1 | 407
O=c1[nH]c(-c2nccnc2Nc2ccc(C(F)(F)F)c(Cl)c2)no1 [Example 20, 3-[3-[3-chloro-4-(trifluoromethyl)anilino]pyrazin-2-yl]-4H-1,2,4-oxadiazol-5-one] | 10.6 | 236
O=C(Nc1ccc(Nc2nccnc2-c2noc(=O)[nH]2)cc1)C1CCC1 [Example 27, N-[4-[[3-(5-oxo-4H-1,2,4-oxadiazol-3-yl)pyrazin-2-yl]amino]phenyl]cyclobutanecarboxamide] | 0.4 | 1540
O=c1[nH]c(-c2c(OCCO)ccnc2Nc2ccc(Cl)cc2)no1 [Example 48, 3-[2-(4-chloroanilino)-4-(2-hydroxyethoxy)-3-pyridyl]-4H-1,2,4-oxadiazol-5-one] | 1.9 | 507
O=c1[nH]c(-c2c(OCCF)ccnc2Nc2ccc(C(F)(F)F)cc2)no1 [Example 65, 3-[4-(2-fluoroethoxy)-2-[4-(trifluoromethyl)anilino]-3-pyridyl]-4H-1,2,4-oxadiazol-5-one] | 6 | 81
O=c1[nH]c(-c2nccnc2Nc2ccc(C(F)(F)F)cc2F)no1 [Example 25] | 9.6 | 117
Nc1cnc(Nc2ccc(C(F)(F)F)cc2)c(-c2noc(=O)[nH]2)c1 [Example 45, 3-[5-amino-2-[4-(trifluoromethyl)anilino]-3-pyridyl]-4H-1,2,4-oxadiazol-5-one] | 6 | 1350
COC(C)(C)CCOc1ccnc(Nc2ccc(C(F)(F)F)cc2)c1-c1noc(=O)[nH]1 [Example 66, 3-[4-(3-methoxy-3-methyl-butoxy)-2-[4-(trifluoromethyl)anilino]-3-pyridyl]-4H-1,2,4-oxadiazol-5-one] | 0.4 | 1470
Nc1cc(C(F)(F)F)ccc1Nc1nccnc1-c1noc(=O)[nH]1 [Example 34, 3-[3-[2-amino-4-(trifluoromethyl)anilino]pyrazin-2-yl]-4H-1,2,4-oxadiazol-5-one] | 0.4 | 2120
NCCOc1ccnc(Nc2ccc(C(F)(F)F)cc2)c1-c1noc(=O)[nH]1 [Example 55, 3-[4-(2-aminoethoxy)-2-[4-(trifluoromethyl)anilino]-3-pyridyl]-4H-1,2,4-oxadiazol-5-one] | 1 | 281
Cc1ccnc(Nc2ccc(C(F)(F)F)cc2)c1-c1noc(=O)[nH]1 [Example 28, 3-[4-methyl-2-[4-(trifluoromethyl)anilino]-3-pyridyl]-4H-1,2,4-oxadiazol-5-one] | 6.1 | 557
CC(C)(C)Oc1ccnc(Nc2ccc(C(F)(F)F)cc2)c1-c1noc(=O)[nH]1 [Example 53, 3-[4-tert-butoxy-2-[4-(trifluoromethyl)anilino]-3-pyridyl]-4H-1,2,4-oxadiazol-5-one] | 3.7 | 815
O=c1[nH]c(-c2nc(CO)cnc2Nc2ccc(C(F)(F)F)cc2)no1 [Example 6, 3-[6-(hydroxymethyl)-3-[4-(trifluoromethyl)anilino]pyrazin-2-yl]-4H-1,2,4-oxadiazol-5-one] | 5 | 499
O=c1[nH]c(-c2c(OCCN3CCOCC3)ccnc2Nc2ccc(C(F)(F)F)cc2)no1 [Example 60, 3-[4-(2-morpholinoethoxy)-2-[4-(trifluoromethyl)anilino]-3-pyridyl]-4H-1,2,4-oxadiazol-5-one] | 1.3 | 465
O=c1[nH]c(-c2c(OC3CCOCC3)ccnc2Nc2ccc(C(F)(F)F)cc2)no1 [Example 64, 3-[4-tetrahydropyran-4-yloxy-2-[4-(trifluoromethyl)anilino]-3-pyridyl]-4H-1,2,4-oxadiazol-5-one] | 4.2 | 268
O=c1[nH]c(-c2nccnc2Nc2ccc(C3(C(F)(F)F)CC3)cc2)no1 [Example 40, 3-[3-[4-[1-(trifluoromethyl)cyclopropyl]anilino]pyrazin-2-yl]-4H-1,2,4-oxadiazol-5-one] | 13.4 | 109
O=c1[nH]c(-c2nccnc2Nc2ccc(C(F)(F)F)c(F)c2)no1 [Example 19, 3-[3-[3-fluoro-4-(trifluoromethyl)anilino]pyrazin-2-yl]-4H-1,2,4-oxadiazol-5-one] | 10.1 | 131
O=c1[nH]c(-c2nccnc2Nc2ccc(C3CCC3)cc2)no1 [Example 41, 3-[3-(4-cyclobutylanilino)pyrazin-2-yl]-4H-1,2,4-oxadiazol-5-one] | 12.5 | 6570
CC1(COc2ccnc(Nc3ccc(C(F)(F)F)cc3)c2-c2noc(=O)[nH]2)CC1 [Example 63, 3-[4-[(1-methylcyclopropyl)methoxy]-2-[4-(trifluoromethyl)anilino]-3-pyridyl]-4H-1,2,4-oxadiazol-5-one] | 3.4 | 1550
O=c1[nH]c(-c2nccnc2Nc2ccc(OC(F)(F)F)cc2)no1 [Example 3, 3-[3-[4-(trifluoromethoxy)anilino]pyrazin-2-yl]-4H-1,2,4-oxadiazol-5-one] | 11.5 | 90
O=c1[nH]c(-c2c(OCCc3ccccn3)ccnc2Nc2ccc(C(F)(F)F)cc2)no1 [Example 61, 3-[4-[2-(2-pyridyl)ethoxy]-2-[4-(trifluoromethyl)anilino]-3-pyridyl]-4H-1,2,4-oxadiazol-5-one] | 2.9 | 147
O=c1[nH]c(-c2cc(C(F)(F)F)cnc2Nc2ccc(C(F)(F)F)cc2)no1 [Example 10, 3-[5-(trifluoromethyl)-2-[4-(trifluoromethyl)anilino]-3-pyridyl]-4H-1,2,4-oxadiazol-5-one] | 10.1 | 374
